Experimental data: US20090023646A1, “GHRH analogues” (Centre Hospitalier de L'Universite de Montreal (CHUM), priority 2002, published 2009)
Square brackets hold non-standard residues; d marks the D form. Ends that are not written are not given here. Peptide text beside a SMILES is read from it.

Tests used:
[1] = In vitro proteolysis assay in rat serum; assay type: in vitro ADME; details: mean±SEM; for Residual concentration: incubation 0 min; for remaining at 8 min, 15 µM / remaining at 0.25 h, 15 µM / remaining at 0.5 h, 15 µM / remaining at 1 h, 15 µM: male, Sprague Dawley, read-out: Residual concentration; for remaining at 8 min, 15 µM: diluted 1/100, incubation 8 min; for remaining at 0.25 h, 15 µM: diluted 1/100, incubation 15 min; for remaining at 0.5 h, 15 µM: diluted 1/100, incubation 30 min; for remaining at 1 h, 15 µM: diluted 1/100, incubation 60 min
Experimental: Proteolysis was stopped by adding 800 μl of ice-cold stop buffer (potassium-phosphate buffer, acidified to pH 0.8 with trifluoroacetic acid (TFA) and boiling 5 min (rat serum only). After centrifugation (12000 g, 5 min, 4° C.) (rat serum only), serum-peptide mixtures were passed through a conditioned Sep-Pak C-18 cartridge to extract native GHRH or a GHRH analogue residual concentrations from serum proteins. The native GHRH or the analogue was eluted in 2 ml of 50% acetonitrile-0.01% TFA/50% 0.01% aqueous TFA. Two hundred μl of extracted peptide, representing 1 μg of GHRH or analogue at time 0, was quantified by analytical HPLC, using one μ-Bondapak C18 column (10 μm particle size, 0.39×15 cm) (rat serum) or two C18 column in series (human serum and plasma) and a binary solvent system composed of NaClO4 0.01 M, pH 2.5 and acetonitrile. A linear gradient from 30 to 60% acetonitrile over 45 min (rat serum) or 30 to 50% (human serum and plasma) was used.

human GHRH receptor = target: T1, human GHRH receptor (Homo sapiens, UniProt Q02643); assay: Competitive 125I-GHRH binding assay in BHK cell membrane preparations expressing the human GHRH receptor; details: ratio IC50 of hGHRH(1-29)-NH2/IC50 analogue, mean±SEM
T1 construct: expressed in transfected cells; host or cells: BHK (baby hamster kidney) 570 cells
T1 sequence (Q02643 23-423): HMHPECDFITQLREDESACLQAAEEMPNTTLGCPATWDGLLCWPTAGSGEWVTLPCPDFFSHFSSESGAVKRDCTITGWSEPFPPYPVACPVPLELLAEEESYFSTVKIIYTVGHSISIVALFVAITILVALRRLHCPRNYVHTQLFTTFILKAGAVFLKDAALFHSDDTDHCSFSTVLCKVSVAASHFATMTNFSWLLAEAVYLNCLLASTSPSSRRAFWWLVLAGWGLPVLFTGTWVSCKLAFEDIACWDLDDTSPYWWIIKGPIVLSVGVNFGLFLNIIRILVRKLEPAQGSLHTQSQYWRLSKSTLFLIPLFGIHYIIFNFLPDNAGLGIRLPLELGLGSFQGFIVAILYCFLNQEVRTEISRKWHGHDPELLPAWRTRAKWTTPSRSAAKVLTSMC
Experimental: Non specific binding was determined in presence of 1 μM hGHRH(1-29)NH2. Incubation was carried out at equilibrium (23° C., 60 min) and stopped by centrifugation (12,000 g, 5 min, at 4° C.). The radioactivity content in pellets was determined by gamma counting. The affinity of hGHRH(1-29) NH2 was tested in each experiment to assess the validity of the assay and determine the relative affinity of the analogues.
Values represent the mean±SEM of 3 experiments performed in triplicate for the analogues and the mean±SEM of 2 experiments performed in triplicate for hGHRH(1-44) NH2.
For the binding assay results presented in Tables 8 to 11, values represent the mean±SEM of 8 independent experiments performed in triplicate for the analogues and the mean±SEM of 4 experiments performed in triplicate for hGHRH(1-29)NH2. […] The relative affinity was obtained by taking the ratio IC50 of hGHRH (1-29)-NH2/IC50 analogue.

in vitro = details: male, human, plasma, Mean residual amount
Experimental: (§1) Ten μl of a 300 M solution of hGHRH (1-29)NH2 or of a GHRH analogue was solubilized in dimethylsulfoxide (DMSO) and incubated in one of the following conditions: a—190 μl serum (1/100 dilution in picopure water) from 2-month-old male Sprague Dawley rats, at 37° C. for 0, 8, 15, 30 or 60 min, in polypropylene tubes; b—190 μl of human healthy volunteer plasma (from Human Whole Blood Na EDTA, males, drug free (Algorithme Pharma Inc.); project: MTL-P2-155; Lot: MTLP2155-01, supplied by LAB Dev Int); and c—190 μl of human healthy volunteer pooled serum, Lot: X409 (supplied by LAB Dev Int), at 37° C. for 0, 60, 120, 180 or 420 min, in polypropylene tubes. Proteolysis was stopped by adding 800 μl of ice-cold stop buffer (potassium-phosphate buffer, acidified to pH 0.8 with trifluoroacetic acid (TFA) and boiling 5 min (rat serum only). After centrifugation (12000 g, 5 min, 4° C.) (rat serum only), serum-peptide mixtures were passed through a conditioned Sep-Pak C-18 cartridge to extract native GHRH or a GHRH analogue residual concentrations from serum proteins. The native GHRH or the analogue was eluted in 2 ml of 50% acetonitrile-0.01% TFA/50% 0.01% aqueous TFA. Two hundred μl of extracted peptide, representing 1 μg of GHRH or analogue at time 0, was quantified by analytical HPLC, using one μ-Bondapak C18 column (10 μm particle size, 0.39×15 cm) (rat serum) or two C18 column in series (human serum and plasma) and a binary solvent system composed of NaClO4 0.01 M, pH 2.5 and acetonitrile. A linear gradient from 30 to 60% acetonitrile over 45 min (rat serum) or 30 to 50% (human serum and plasma) was used.
(§2) More specifically, the values represent the mean, standard deviation and standard error from the mean of 3 to 7 experiments.

[2] = In vitro proteolysis assay in human serum; assay type: in vitro ADME; details: human serum
Experimental: as §1, §2

Residual concentration [1]	remaining at 8 min, 15 µM [1]	remaining at 0.25 h, 15 µM [1]	remaining at 0.5 h, 15 µM [1]	remaining at 1 h, 15 µM [1]	Relative binding affinity (R1) in comparison with hGHRH(1-29)NH2 in BHK cells expressing the hGHRH receptor (human GHRH receptor; listed as 1)	Relative binding affinity (R1) in comparison with hGHRH(1-29)NH2 in BHK cells expressing the hGHRH receptor (human GHRH receptor; listed as #1)	remaining at 1 h, 15 µM (in vitro)	remaining at 2 h, 15 µM (in vitro)	remaining at 3 h, 15 µM (in vitro)	Relative binding affinity (R1) in comparison with hGHRH(1-29)NH2 in BHK cells expressing the hGHRH receptor (human GHRH receptor; D-Tyr^10, Lys^22]human GHRH(1-29)NH2)	Relative binding affinity (R1) in comparison with hGHRH(1-29)NH2 in BHK cells expressing the hGHRH receptor (human GHRH receptor)	Mean residual amount ([2]; incubation time 0 min)	Mean residual amount ([2]; incubation time 420 min)	remaining at 1 h, 15 µM ([2]; human, pooled human serum, incubation time 60 min, read-out: Mean residual amount)	remaining at 2 h, 15 µM ([2]; human, pooled human serum, incubation time 120 min, read-out: Mean residual amount)	remaining at 3 h, 15 µM ([2]; human, pooled human serum, incubation time 180 min, read-out: Mean residual amount)	remaining at 7 h, 15 µM ([2]; human, pooled human serum, incubation time 420 min, read-out: Mean residual amount)	remaining at 7 h, 15 µM (in vitro)	Compound
100 ± 0 % of initial concentration	75 ± 12%	70 ± 15%	53 ± 8%	30 ± 6%	499 ± 234	significantly higher binding affinity	79%	63%	68%										CC[C@H](C)[C@H](NC(=O)[C@H](C)NC(=O)[C@H](CC(=O)O)NC(=O)[C@@H](C)NC(=O)[C@@H](N)Cc1ccc(O)cc1)C(=O)N[C@@H](Cc1ccccc1)C(=O)N[C@H](C(=O)N[C@@H](C)C(=O)N[C@@H](CO)C(=O)N[C@@H](Cc1ccc(O)cc1)C(=O)N[C@@H](CCCNC(=N)N)C(=O)N[C@@H](CCCCN)C(=O)N[C@H](C(=O)N[C@@H](CC(C)C)C(=O)N[C@@H](C)C(=O)N[C@@H](CCC(N)=O)C(=O)N[C@@H](CC(C)C)C(=O)N[C@@H](CO)C(=O)N[C@@H](C)C(=O)N[C@@H](CCCNC(=N)N)C(=O)N[C@@H](CCCCN)C(=O)N[C@@H](CCCCN)C(=O)N[C@@H](CC(C)C)C(=O)N[C@@H](CCC(N)=O)C(=O)N[C@@H](CC(=O)O)C(=O)N[C@H](C(=O)N[C@@H](CCSC)C(=O)N[C@@H](CO)C(=O)N[C@@H](CCCNC(=N)N)C(N)=O)[C@@H](C)CC)C(C)C)[C@@H](C)O [GHRH analogue #1, [D-Ala^2, Ala^8, Ala^15, Lys^22] hGHRH(1-29)-NH2] (H-Y[dA]DAIFTASYRKVLAQLSARKKLQDIMSR-NH2; N-terminus assumed)
100 ± 0 % of initial concentration	82 ± 7%	88 ± 7%	70 ± 12%	36 ± 4%			87%	78%	81%	239 ± 55									CC[C@H](C)[C@H](NC(=O)[C@H](C)NC(=O)[C@H](CC(=O)O)NC(=O)[C@@H](C)NC(=O)[C@@H](N)Cc1ccc(O)cc1)C(=O)N[C@@H](Cc1ccccc1)C(=O)N[C@H](C(=O)N[C@@H](CC(N)=O)C(=O)N[C@@H](CO)C(=O)N[C@H](Cc1ccc(O)cc1)C(=O)N[C@@H](CCCNC(=N)N)C(=O)N[C@@H](CCCCN)C(=O)N[C@H](C(=O)N[C@@H](CC(C)C)C(=O)NCC(=O)N[C@@H](CCC(N)=O)C(=O)N[C@@H](CC(C)C)C(=O)N[C@@H](CO)C(=O)N[C@@H](C)C(=O)N[C@@H](CCCNC(=N)N)C(=O)N[C@@H](CCCCN)C(=O)N[C@@H](CCCCN)C(=O)N[C@@H](CC(C)C)C(=O)N[C@@H](CCC(N)=O)C(=O)N[C@@H](CC(=O)O)C(=O)N[C@H](C(=O)N[C@@H](CCSC)C(=O)N[C@@H](CO)C(=O)N[C@@H](CCCNC(=N)N)C(N)=O)[C@@H](C)CC)C(C)C)[C@@H](C)O [GHRH analogue #3, [D-Ala^2, D-Tyr^10, Lys^22] hGHRH(1-29)-NH2] (H-Y[dA]DAIFTNS[dY]RKVLGQLSARKKLQDIMSR-NH2; N-terminus assumed)
100 ± 0 % of initial concentration	98 ± 2%	100%	99 ± 1%	97 ± 3%							0.05 ± 0.01								CC[C@H](C)[C@H](NC(=O)[C@H](C)NC(=O)[C@H](CC(=O)O)NC(=O)[C@@H](C)NC(=O)[C@@H](N)Cc1ccc(O)cc1)C(=O)N[C@@H](Cc1ccccc1)C(=O)N[C@H](C(=O)N[C@@H](C)C(=O)N[C@@H](CO)C(=O)N[C@H](Cc1ccc(O)cc1)C(=O)N[C@@H](CCCNC(=N)N)C(=O)N[C@@H](CCCCN)C(=O)N[C@H](C(=O)N[C@@H](CC(C)C)C(=O)N[C@@H](C)C(=O)N[C@@H](CCC(N)=O)C(=O)N[C@@H](CC(C)C)C(=O)N[C@@H](CO)C(=O)N[C@@H](C)C(=O)N[C@@H](CCCNC(=N)N)C(=O)N[C@H](CCCCN)C(=O)N[C@@H](CCCCN)C(=O)N[C@@H](CC(C)C)C(=O)N[C@@H](CCC(N)=O)C(=O)N[C@@H](CC(=O)O)C(=O)N[C@H](C(=O)N[C@@H](CCSC)C(=O)N[C@@H](CO)C(=O)N[C@@H](CCCNC(=N)N)C(N)=O)[C@@H](C)CC)C(C)C)[C@@H](C)O [GHRH analogue #4, [D-Ala^2, Ala^8, D-Tyr^10, Ala^15, D-Lys^21, Lys^22] hGHRH(1-29)-NH2] (H-Y[dA]DAIFTAS[dY]RKVLAQLSAR[dK]KLQDIMSR-NH2; N-terminus assumed)
100 ± 0 % of initial concentration	81 ± 2%	66 ± 3%	43 ± 2%	16 ± 1%			53%	44%	23%			100%	disappeared totally	57%	37%	16%	0%	5%	CC[C@H](C)[C@H](NC(=O)[C@H](C)NC(=O)[C@H](CC(=O)O)NC(=O)[C@H](C)NC(=O)[C@@H](N)Cc1ccc(O)cc1)C(=O)N[C@@H](Cc1ccccc1)C(=O)N[C@H](C(=O)N[C@@H](CC(N)=O)C(=O)N[C@@H](CO)C(=O)N[C@@H](Cc1ccc(O)cc1)C(=O)N[C@@H](CCCNC(=N)N)C(=O)N[C@@H](CCCCN)C(=O)N[C@H](C(=O)N[C@@H](CC(C)C)C(=O)NCC(=O)N[C@@H](CCC(N)=O)C(=O)N[C@@H](CC(C)C)C(=O)N[C@@H](CO)C(=O)N[C@@H](C)C(=O)N[C@@H](CCCNC(=N)N)C(=O)N[C@@H](CCCCN)C(=O)N[C@@H](CC(C)C)C(=O)N[C@@H](CC(C)C)C(=O)N[C@@H](CCC(N)=O)C(=O)N[C@@H](CC(=O)O)C(=O)N[C@H](C(=O)N[C@@H](CCSC)C(=O)N[C@@H](CO)C(=O)N[C@@H](CCCNC(=N)N)C(N)=O)[C@@H](C)CC)C(C)C)[C@@H](C)O [hGHRH(1-29)NH2, reference compound]
100 ± 0 % of initial concentration	83 ± 3%	73 ± 5%	53 ± 3%	29 ± 2%															YADAIFTAAYRKVLAQLSARKALQDIMSR-NH2 [GHRH analogue #2, [Ala^8, Ala^9, Ala^15, Ala^22] hGHRH(1-29)-NH2]
